Reference: ChEMBL document CHEMBL5532636 (Eur J Med Chem, 2023)

Tests used:
SARS-CoV-2 [1] = assay: Antiviral activity against SARS-CoV-2 infected in African green monkey Vero cells assessed as reduction in progeny virus yeild preincubated with cell culture for 1 hr and further infected with virus for 1 hr followed by replacement of medium containing compound measured after 2 days by qRT-PCR analysis; type: functional, organism-based; details: Severe acute respiratory syndrome coronavirus 2, Vero
SARS-CoV-2 [2] = assay: Antiviral activity against SARS-CoV-2 infected in human Calu-3 cells assessed as reduction in progeny virus yeild preincubated with cell culture for 1 hr and further infected with virus for 1 hr followed by replacement of medium containing compound measured after 2 days by qRT-PCR analysis; type: functional, organism-based; details: Severe acute respiratory syndrome coronavirus 2, Calu-3

Compound	EC50 (SARS-CoV-2 [1])	EC50 (SARS-CoV-2 [2])
O=C(O)[C@H]1O[C@@H](Oc2cc3oc(-c4ccccc4)cc(=O)c3c(O)c2O)[C@H](O)[C@@H](O)[C@@H]1O [BAICALIN]	9 µM	
O=c1cc(-c2ccccc2)oc2cc(O)c(O)c(O)c12 [BAICALEIN]		1.2 µM
